Legend:
[1] = target: GDP-bound HRAS wild-type protein (Homo sapiens, UniProt P01112); assay: Binding to HRAS by surface plasmon resonance (SPR), Single Cycle Kinetics; details: KD ratio HRAS/KRAS, class symbols
[2] = target: GDP-bound NRAS wild-type protein (Homo sapiens, UniProt P01111); assay: Binding to NRAS by surface plasmon resonance (SPR), Single Cycle Kinetics; details: KD ratio NRAS/KRAS, class symbols
GDP-bound NRAS wild-type protein, sequence (P01111 whole entry): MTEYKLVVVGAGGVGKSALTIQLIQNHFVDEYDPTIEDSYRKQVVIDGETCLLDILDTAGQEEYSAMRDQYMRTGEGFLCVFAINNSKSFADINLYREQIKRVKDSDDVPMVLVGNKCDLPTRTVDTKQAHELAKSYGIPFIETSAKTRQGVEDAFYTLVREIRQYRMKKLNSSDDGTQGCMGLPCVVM

GDP-bound HRAS wild-type protein, sequence (P01112 whole entry): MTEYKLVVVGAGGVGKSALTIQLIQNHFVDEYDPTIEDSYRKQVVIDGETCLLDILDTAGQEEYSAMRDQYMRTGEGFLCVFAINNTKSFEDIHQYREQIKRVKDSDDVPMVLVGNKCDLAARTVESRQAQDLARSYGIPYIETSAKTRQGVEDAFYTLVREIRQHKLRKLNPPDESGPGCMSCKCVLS

Row | Structure (SMILES) | HRAS/KRAS (ratio of KD value with respect to GDP-bound HRAS wild-type protein to KD value with respect to KRAS) [1] | NRAS/KRAS (ratio of KD value with respect to GDP-bound NRAS wild-type protein to KD value with respect to KRAS) [2]
1 | CCC[C@H]1C(=O)N[C@@H]([C@@H](C)CC)C(=O)N(C)CC(=O)N(C)[C@H]2C/C=C\CCN(C2=O)[C@@H](Cc2ccc(C(F)(F)F)cc2)C(=O)N(C)CC(=O)N[C@@H](CCc2ccc3c(C)c(C)n(C)c3c2)C(=O)N2C[C@H](OCC)C[C@H]2C(=O)NC2(CC(C)(C)C2)C(=O)N(C)[C@@H](C2CCCC2)C(=O)N(C)[C@H](C(=O)N(C)C)CC(=O)N1C [PP2893] | A (a compound having 10 or more and less than 20 is denoted as A) | A (a compound having 10 or more and less than 20 is denoted as A)
2 | CCC[C@H]1C(=O)N[C@@H]([C@@H](C)CC)C(=O)N(C)CC(=O)N(C)[C@H]2C/C=C\CCN(C2=O)[C@@H](Cc2ccc(C)cc2)C(=O)N(C)CC(=O)N[C@@H](CCc2ccc3sc(F)c(C)c3c2)C(=O)N2C[C@H](OCC)C[C@H]2C(=O)NC2(CC(C)(C)C2)C(=O)N(C)[C@@H](C(CC)CC)C(=O)N(C)[C@H](C(=O)N(C)C)CC(=O)N1C [PP2894] | A (a compound having 10 or more and less than 20 is denoted as A) | AA (a compound having 20 or more is denoted as AA)
3 | CCC[C@H]1C(=O)N[C@@H]([C@@H](C)CC)C(=O)N(C)CC(=O)N(C)[C@H]2C/C=C\CCN(C2=O)[C@@H](Cc2ccc(C)cc2)C(=O)N(C)CC(=O)N[C@@H](CCc2ccc3c(C)c(C)n(C)c3c2)C(=O)N2C[C@H](OCC)C[C@H]2C(=O)NC2(CC(C)(C)C2)C(=O)N(C)[C@@H](C2CCCC2)C(=O)N(C)[C@H](C(=O)N(C)C)CC(=O)N1C [PP2895] | A (a compound having 10 or more and less than 20 is denoted as A) | A (a compound having 10 or more and less than 20 is denoted as A)
4 | CCC[C@H]1C(=O)N[C@@H]([C@@H](C)CC)C(=O)N(C)CC(=O)N(C)[C@H]2C/C=C\CCN(C2=O)[C@@H](Cc2ccc(C(F)(F)F)cc2)C(=O)N(C)CC(=O)N[C@@H](CCc2ccc3c(C)cn(C)c3c2)C(=O)N2C[C@H](OCC)C[C@H]2C(=O)NC2(CC(C)(C)C2)C(=O)N(C)[C@@H](C2CCCC2)C(=O)N(C)[C@H](C(=O)N(C)C)CC(=O)N1C [PP2897] | B (a compound having 3 or more and less than 10 is denoted as B) | A (a compound having 10 or more and less than 20 is denoted as A)
5 | CCC[C@H]1C(=O)N[C@@H]([C@@H](C)CC)C(=O)N(C)CC(=O)N(C)[C@H]2C/C=C\CCN(C2=O)[C@@H](Cc2ccc(C)cc2)C(=O)N(C)CC(=O)N[C@@H](CCc2cc(Cl)c3c(ccn3C)c2)C(=O)N2C[C@H](OCC)C[C@H]2C(=O)NC2(CC(C)(C)C2)C(=O)N(C)[C@@H](C(CC)CC)C(=O)N(C)[C@H](C(=O)N(C)C)CC(=O)N1C [PP2898] | A (a compound having 10 or more and less than 20 is denoted as A) | A (a compound having 10 or more and less than 20 is denoted as A)
6 | CCC[C@H]1C(=O)N[C@@H]([C@@H](C)CC)C(=O)N(C)CC(=O)N(C)[C@H]2C/C=C\CCN(C2=O)[C@@H](Cc2ccc(C)cc2)C(=O)N(C)CC(=O)N[C@@H](CCc2ccc3c(C)cn(C)c3c2)C(=O)N2C[C@H](OCC)C[C@H]2C(=O)NC2(CC(C)(C)C2)C(=O)N(C)[C@@H](C2CCCC2)C(=O)N(C)[C@H](C(=O)N(C)C)CC(=O)N1C [PP2899] | B (a compound having 3 or more and less than 10 is denoted as B) | A (a compound having 10 or more and less than 20 is denoted as A)
7 | CCC[C@H]1C(=O)N[C@@H]([C@@H](C)CC)C(=O)N(C)CC(=O)N(C)[C@H]2C/C=C\CCN(C2=O)[C@@H](Cc2ccc(C(F)(F)F)cc2)C(=O)N(C)CC(=O)N[C@@H](CCc2ccc3sc(C)c(C)c3c2)C(=O)N2C[C@H](OCC)C[C@H]2C(=O)NC2(CC(C)(C)C2)C(=O)N(C)[C@@H](C(CC)CC)C(=O)N(C)[C@H](C(=O)N(C)C)CC(=O)N1C [PP2900] | A (a compound having 10 or more and less than 20 is denoted as A) | AA (a compound having 20 or more is denoted as AA)
8 | CCC[C@H]1C(=O)N[C@@H]([C@@H](C)CC)C(=O)N(C)CC(=O)N(C)[C@H]2C/C=C\CCN(C2=O)[C@@H](Cc2ccc(C(F)(F)F)cc2)C(=O)N(C)CC(=O)N[C@@H](CCc2ccc3ccn(C)c3c2)C(=O)N2C[C@H](OCC)C[C@H]2C(=O)NC2(CC(C)(C)C2)C(=O)N(C)[C@@H](C2CCCC2)C(=O)N(C)[C@H](C(=O)N(C)C)CC(=O)N1C [PP2901] | A (a compound having 10 or more and less than 20 is denoted as A) | A (a compound having 10 or more and less than 20 is denoted as A)
9 | CCC[C@H]1C(=O)N[C@@H]([C@@H](C)CC)C(=O)N(C)CC(=O)N(C)[C@H]2C/C=C\CCN(C2=O)[C@@H](Cc2ccc(C)cc2)C(=O)N(C)CC(=O)N[C@@H](CCc2ccc3sc(C)c(C)c3c2)C(=O)N2C[C@H](OCC)C[C@H]2C(=O)NC2(CC(C)(C)C2)C(=O)N(C)[C@@H](C(CC)CC)C(=O)N(C)[C@H](C(=O)N(C)C)CC(=O)N1C [PP2902] | A (a compound having 10 or more and less than 20 is denoted as A) | AA (a compound having 20 or more is denoted as AA)
10 | CCC[C@H]1C(=O)N[C@@H]([C@@H](C)CC)C(=O)N(C)CC(=O)N(C)[C@H]2C/C=C\CCN(C2=O)[C@@H](Cc2ccc(C(F)(F)F)cc2)C(=O)N(C)CC(=O)N[C@@H](CCc2ccc3c(C)c(C)n(C)c3c2)C(=O)N2C[C@H](OCC)C[C@H]2C(=O)NC2(CC(C)(C)C2)C(=O)N(C)[C@@H](C(CC)CC)C(=O)N(C)[C@H](C(=O)N(C)C)CC(=O)N1C [PP2904] | A (a compound having 10 or more and less than 20 is denoted as A) | AA (a compound having 20 or more is denoted as AA)
11 | C#CC[C@H]1C(=O)N[C@@H]([C@@H](C)CC)C(=O)N(C)CC(=O)N(C)[C@H]2C/C=C\CCN(C2=O)[C@@H](Cc2ccc(C(F)(F)F)cc2)C(=O)N(C)CC(=O)N[C@@H](CCc2ccc(C(F)(F)F)c(OC)c2)C(=O)N2CCOC[C@H]2C(=O)NC2(CC(C)(C)C2)C(=O)N(C)[C@@H](C2CCCC2)C(=O)N(C)[C@H](C(=O)N(C)C)CC(=O)N1C [PP2905] | A (a compound having 10 or more and less than 20 is denoted as A) | AA (a compound having 20 or more is denoted as AA)
12 | CCC[C@H]1C(=O)N[C@@H]([C@@H](C)CC)C(=O)N(C)CC(=O)N(C)[C@H]2C/C=C\CCN(C2=O)[C@@H](Cc2ccc(C)cc2)C(=O)N(C)CC(=O)N[C@@H](CCc2ccc3c(C)c(C)n(C)c3c2)C(=O)N2C[C@H](OCC)C[C@H]2C(=O)NC2(CC(C)(C)C2)C(=O)N(C)[C@@H](C(CC)CC)C(=O)N(C)[C@H](C(=O)N(C)C)CC(=O)N1C [PP2906] | A (a compound having 10 or more and less than 20 is denoted as A) | A (a compound having 10 or more and less than 20 is denoted as A)
13 | CC[C@H](C)[C@@H]1NC(=O)[C@H](COC)N(C)C(=O)C[C@@H](C(=O)N(C)C)N(C)C(=O)[C@H](C2CCCC2)N(C)C(=O)C2(CC(C)(C)C2)NC(=O)[C@@H]2CCCCN2C(=O)[C@H](CCc2cc(F)c(C(F)(F)F)c(F)c2)NC(=O)CN(C)C(=O)[C@H](Cc2ccc(C(F)(F)F)cc2)N2CC/C=C\C[C@@H](C2=O)N(C)C(=O)CN(C)C1=O [PP2907] | A (a compound having 10 or more and less than 20 is denoted as A) | AA (a compound having 20 or more is denoted as AA)
14 | CCC[C@H]1C(=O)N[C@@H]([C@@H](C)CC)C(=O)N(C)CC(=O)N(C)[C@H]2C/C=C\CCN(C2=O)[C@@H](Cc2ccc(C(F)(F)F)cc2)C(=O)N(C)CC(=O)N[C@@H](CCc2ccc3c(C)cn(C)c3c2)C(=O)N2C[C@H](OCC)C[C@H]2C(=O)NC2(CC(C)(C)C2)C(=O)N(C)[C@@H](C(CC)CC)C(=O)N(C)[C@H](C(=O)N(C)C)CC(=O)N1C [PP2908] | A (a compound having 10 or more and less than 20 is denoted as A) | AA (a compound having 20 or more is denoted as AA)
15 | C#CC[C@H]1C(=O)N[C@@H]([C@@H](C)CC)C(=O)N(C)CC(=O)N(C)[C@H]2C/C=C\CCN(C2=O)[C@@H](Cc2ccc(C(F)(F)F)cc2)C(=O)N(C)CC(=O)N[C@@H](CCc2ccc(C(F)(F)F)c(OC)c2)C(=O)N2CC[C@H]2C(=O)NC2(CC(C)(C)C2)C(=O)N(C)[C@@H](C2CCCC2)C(=O)N(C)[C@H](C(=O)N(C)C)CC(=O)N1C [PP2909] | B (a compound having 3 or more and less than 10 is denoted as B) | B (a compound having 3 or more and less than 10 is denoted as B)
16 | CCC[C@H]1C(=O)N[C@@H]([C@@H](C)CC)C(=O)N(C)CC(=O)N(C)[C@H]2C/C=C\CCN(C2=O)[C@@H](Cc2ccc(C)cc2)C(=O)N(C)CC(=O)N[C@@H](CCc2ccc3c(C)cn(C)c3c2)C(=O)N2C[C@H](OCC)C[C@H]2C(=O)NC2(CC(C)(C)C2)C(=O)N(C)[C@@H](C(CC)CC)C(=O)N(C)[C@H](C(=O)N(C)C)CC(=O)N1C [PP2910] | A (a compound having 10 or more and less than 20 is denoted as A) | AA (a compound having 20 or more is denoted as AA)

Reference: patent US20250230193A1, “CYCLIC COMPOUND HAVING SELECTIVE KRAS INHIBITORY EFFECT ON HRAS AND NRAS” (CHUGAI SEIYAKU KABUSHIKI KAISHA, priority 2022, published 2025)
